From EP4582413A1, “ARYLTETRAHYDROPYRIDINE COMPOUND AND PEST CONTROL AGENT” (priority 2022, dated 2024)

Tests used:
Type in all cases: in vivo
[1] = system: cat fleas (Ctenocephalides felis); test: whole plant or invertebrate; details: 72 h, read-out: death rate
Experimental: In 1 ml of acetone, 1 mg of the presently invented compound was dissolved to prepare a chemical solution having a concentration of 1000 ppm. The bottom surface and side surface of each glass container having an inner wall surface area of 25 cm^2 were coated with 250 µl of the chemical solution, and acetone was then volatilized to form a thin film of the compound on the inner wall of the glass container.
Into each of the treated glass containers, five cat fleas (Ctenocephalides felis) imagoes (mixed-sex) were released, and the glass containers were capped and accommodated in a thermostatic room at 25°C. Three days after the release, the number of dead flea individuals were examined, and the death rate was calculated from the same calculation formula as in Test Example 1.

[2] = system: diamondback moths (Plutella xylostella); test: Insecticidal test for diamondback moths; details: Plutella xylostella, 144 h; 500 ppm chemical solution, leaves soaked, third-instar larvae, six days, 25°C; read-out: death rate
Experimental: A 10% by mass emulsion of the presently invented compound prepared according to the above formulation example for an emulsion was diluted with water containing a spreader to prepare a chemical solution having a concentration of 500 ppm. Chinese olive leaves were soaked in the chemical solution for approximately 10 seconds. After the completion of the soaking operation, the Chinese olive leaves treated with the chemical solution were air-dried, and then put in dishes. Into each dish, five third-instar diamondback moths (Plutella xylostella) larvae were released, and the dishes were capped and accommodated in a thermostatic room at 25°C. […] The test was carried out in duplicate.

[3] = system: western flower thrips (Frankliniella occidentalis); test: Insecticidal activity against western flower thrips; details: Frankliniella occidentalis, 48 h; 500 ppm chemical solution sprinkled (2.5 mg/cm^2), larvae on common bean leaf, after 2 days; read-out: death rate
Experimental: Wet filter paper was laid on each styrol cup having an inner diameter of 7 cm, and a common bean leaf cut into a 3 cm square was placed thereon, and inoculated with 20 western flower thrips (Frankliniella occidentalis) larvae. A 10% by mass emulsion of the presently invented compound prepared according to the above formulation example for an emulsion was diluted with water containing a spreader to prepare a chemical solution having a concentration of 500 ppm. For each styrol cup, 2.5 ml of the chemical solution prepared was sprinkled (2.5 mg/cm^2) with a rotary tower sprinkler. […] The test was carried out in duplicate.

[4] = system: brown rice planthoppers (Nilaparvata lugens); test: Insecticidal test for brown rice planthoppers; details: Nilaparvata lugens, 144 h; 500 ppm chemical solution, rice leaf sheaths soaked, third-instar larvae, six days, 25°C; read-out: death rate
Experimental: A 10% by mass emulsion of the presently invented compound prepared according to the above formulation example for an emulsion was diluted with water containing a spreader to prepare a chemical solution having a concentration of 500 ppm. Rice leaf sheaths were soaked in the chemical solution for approximately 10 seconds. After the completion of the soaking operation, the rice leaf sheaths treated with the chemical solution were air-dried, and then put in test tubes. Into each test tube, five third-instar brown rice planthoppers (Nilaparvata lugens) larvae were released, and the test tubes were capped with sponge and accommodated in a thermostatic room at 25°C. Six days after the accommodation, the number of dead brown rice planthoppers individuals in the test tubes were examined, and the death rate was calculated from a calculation formula shown below. The test was carried out in duplicate. [formula]

Row | SMILES | mortality at 10 µg/cm2 [1] [%] | mortality at 500 µg/mL [2] [%] | mortality at 500 µg/mL [3] [%] | mortality at 500 µg/mL [4] [%]
1 | O=C(Nc1ccc(F)cc1)C1=C(O)CC(c2ccc(C(F)(F)F)c(-c3cncc(F)c3)c2)NC1=O (stereo not drawn) [1-002] | ≥ 50 | ≥ 90 | ≥ 90 | ≥ 90
2 | O=C(Nc1cc(C(F)(F)F)ccn1)C1=C(O)CC(c2cnc(Cl)c(-c3cnccc3F)c2)NC1=O (stereo not drawn) [2-145] | ≥ 50 | ≥ 90 | ≥ 90 | ≥ 90
3 | O=C(Nc1cccc(F)n1)C1=C(O)CC(c2cnc(Cl)c(-c3cnccc3F)c2)NC1=O (stereo not drawn) [2-142] | ≥ 50 | ≥ 90 | ≥ 90 | ≥ 90
4 | Cc1ccc(NC(=O)C2=C(O)CC(c3nc(-c4ccc(F)cc4F)no3)NC2=O)nc1 (stereo not drawn) [3-175] | ≥ 50 | ≥ 90 | ≥ 90 | ≥ 90
5 | N#Cc1ccc(NC(=O)C2=C(O)CC(c3nc(-c4ccnc(F)c4)no3)NC2=O)cc1 (stereo not drawn) [3-071] | ≥ 50 | ≥ 90 | ≥ 90 | ≥ 90
6 | N#Cc1ccc(NC(=O)C2=C(O)CC(c3cnc(Cl)c(-c4ccccc4)c3)NC2=O)cn1 (stereo not drawn) [2-093] | ≥ 50 | ≥ 90 | ≥ 90 | ≥ 90
7 | O=C(Nc1ccc(F)cc1)C1=C(O)CC(c2nc(-c3ccccc3F)no2)NC1=O (stereo not drawn) [3-012] | ≥ 50 | ≥ 90 | ≥ 90 | ≥ 90
8 | O=C(Nc1ccc(C(F)(F)F)nc1)C1=C(O)CC(c2cnc(Cl)c(-c3ccc(F)nc3)c2)NC1=O (stereo not drawn) [2-012] | ≥ 50 | ≥ 90 | ≥ 90 | ≥ 90
9 | N#Cc1ccc(NC(=O)C2=C(O)CC(c3cnc(Cl)c(-c4ccccc4)c3)NC2=O)cc1 (stereo not drawn) [2-090] | ≥ 50 | ≥ 90 | ≥ 90 | ≥ 90
10 | O=C(Nc1cc(F)ccn1)C1=C(O)CC(c2nc(-c3cc(F)ccc3F)no2)NC1=O (stereo not drawn) [3-050] | ≥ 50 | ≥ 90 | ≥ 90 | ≥ 90
11 | Cc1ccnc(NC(=O)C2=C(O)CC(c3nc(-c4ccncc4C)no3)NC2=O)c1 (stereo not drawn) [3-176] | ≥ 50 | ≥ 90 | ≥ 90 | ≥ 90
12 | O=C(Nc1nccs1)C1=C(O)CC(c2cnc(Cl)c(-c3ccc(F)cc3)c2)NC1=O (stereo not drawn) [2-235] | ≥ 50 | ≥ 90 | ≥ 90 | ≥ 90
13 | O=C(Nc1cnc(Cl)cn1)C1=C(O)CC(c2cnc(Cl)c(-c3ccc(F)nc3)c2)NC1=O (stereo not drawn) [2-011] | ≥ 50 | ≥ 90 | ≥ 90 | ≥ 90
14 | Cc1cccc(-c2cc(C3CC(O)=C(C(=O)Nc4cnccn4)C(=O)N3)cnc2Cl)c1 (stereo not drawn) [2-261] | ≥ 50 | ≥ 90 | ≥ 90 | ≥ 90
15 | O=C(Nc1cc(Br)ccn1)C1=C(O)CC(c2cnc(Cl)c(-c3cnccc3F)c2)NC1=O (stereo not drawn) [2-144] | ≥ 50 | ≥ 90 | ≥ 90 | ≥ 90
16 | O=C(Nc1ccc(F)cc1)C1=C(O)CC(c2nc(-c3ccccn3)no2)NC1=O (stereo not drawn) [3-006] | ≥ 50 | ≥ 90 | ≥ 90 | ≥ 90
17 | O=C(Nc1ccc(F)cc1)C1=C(O)CC(c2nc(-c3cccc(Cl)c3)no2)NC1=O (stereo not drawn) [3-029] | ≥ 50 | ≥ 90 | ≥ 90 | ≥ 90
18 | O=C(Nc1cc(Br)cc(F)n1)C1=C(O)CC(c2cnc(Cl)c(-c3cnccc3F)c2)NC1=O (stereo not drawn) [2-138] | ≥ 50 | ≥ 90 | ≥ 90 | ≥ 90

Row | SMILES | mortality at 10 µg/cm2 [1] [%] | mortality at 500 µg/mL [2] [%] | mortality at 500 µg/mL [3] [%] | mortality at 500 µg/mL [4] [%]
19 | Cc1cccc(-c2cc(C3CC(O)=C(C(=O)Nc4ccccn4)C(=O)N3)cnc2Cl)c1 (stereo not drawn) [2-260] | ≥ 50 | ≥ 90 | ≥ 90 | ≥ 90
20 | O=C(Nc1ccc(F)nc1)C1=C(O)CC(c2cnc(Cl)c(-c3ccc(F)nc3)c2)NC1=O (stereo not drawn) [2-008] | ≥ 50 | ≥ 90 | ≥ 90 | ≥ 90
21 | O=C(Nc1ccc(F)cn1)C1=C(O)CC(c2cnc(Cl)c(-c3ccc(F)nc3)c2)NC1=O (stereo not drawn) [2-009] | ≥ 50 | ≥ 90 | ≥ 90 | ≥ 90
22 | O=C(Nc1cc(F)ccn1)C1=C(O)CC(c2nc(-c3ccc(F)c(Br)c3)no2)NC1=O (stereo not drawn) [3-146] | ≥ 50 | ≥ 90 | ≥ 90 | ≥ 90
23 | O=C(Nc1ccccn1)C1=C(O)CC(c2nc(-c3ccc(F)cc3)no2)NC1=O (stereo not drawn) [3-184] | ≥ 50 | ≥ 90 | ≥ 90 | ≥ 90
24 | O=C(Nc1ncccc1Br)C1=C(O)CC(c2nc(-c3cnccc3F)no2)NC1=O (stereo not drawn) [3-233] | ≥ 50 | ≥ 90 | ≥ 90 | ≥ 90
25 | O=C(Nc1cc(F)ccn1)C1=C(O)CC(c2nc(-c3ccns3)no2)NC1=O (stereo not drawn) [3-227] | ≥ 50 | ≥ 90 | ≥ 90 | ≥ 90
26 | Cc1cccc(-c2cc(C3CC(O)=C(C(=O)Nc4ccc(C#N)cc4)C(=O)N3)cnc2Cl)c1 (stereo not drawn) [2-269] | ≥ 50 | ≥ 90 | ≥ 90 | ≥ 90
27 | O=C(Nc1ccc(F)cc1)C1=C(O)CC(c2nc(-c3ccncc3)no2)NC1=O (stereo not drawn) [3-031] | ≥ 50 | ≥ 90 | ≥ 90 | ≥ 90
28 | Cc1cccc(-c2noc(C3CC(O)=C(C(=O)Nc4ccc(F)cc4)C(=O)N3)n2)c1 (stereo not drawn) [3-030] | ≥ 50 | ≥ 90 | ≥ 90 | ≥ 90
29 | O=C(Nc1ncccn1)C1=C(O)CC(c2cnc(Cl)c(-c3cnccc3F)c2)NC1=O (stereo not drawn) [2-134] | ≥ 50 | ≥ 90 | ≥ 90 | ≥ 90
30 | O=C(Nc1ccncn1)C1=C(O)CC(c2cnc(Cl)c(-c3ccc(F)nc3)c2)NC1=O (stereo not drawn) [2-101] | ≥ 50 | ≥ 90 | ≥ 90 | ≥ 90
31 | O=C(Nc1ccccn1)C1=C(O)CC(c2cnc(Cl)c(-c3ccc(F)nc3)c2)NC1=O (stereo not drawn) [2-096] | ≥ 50 | ≥ 90 | ≥ 90 | ≥ 90
32 | O=C(Nc1cccc(F)n1)C1=C(O)CC(c2nc(-c3ccncc3Cl)no2)NC1=O (stereo not drawn) [3-239] | ≥ 50 | ≥ 90 | ≥ 90 | ≥ 90
33 | O=C(Nc1cnccn1)C1=C(O)CC(c2cnc(Cl)c(-c3ccc(F)cc3)c2)NC1=O (stereo not drawn) [2-227] | ≥ 50 | ≥ 90 | ≥ 90 | ≥ 90
34 | O=C(Nc1ccc(Cl)nc1)C1=C(O)CC(c2cnc(Cl)c(-c3ccccc3)c2)NC1=O (stereo not drawn) [2-092] | ≥ 50 | ≥ 90 | ≥ 90 | ≥ 90
35 | O=C(Nc1ccc(F)cc1F)C1=C(O)CC(c2nc(-c3ccc(F)cc3F)no2)NC1=O (stereo not drawn) [3-157] | ≥ 50 | ≥ 90 | ≥ 90 | ≥ 90
36 | O=C(Nc1ccc(F)cc1)C1=C(O)CC(c2nc(-c3ccccc3)no2)NC1=O (stereo not drawn) [3-001] | ≥ 50 | ≥ 90 | ≥ 90 | ≥ 90
